{"source": "paper PMC4356375", "about": "“Snapshots of ligand entry, malleable binding and induced helical movement in P-glycoprotein” (Acta Crystallographica Section D: Biological Crystallography, 2015)", "key": {"AUXB1 cells": {"tested_on": "AUXB1 cells", "experiment": "Growth inhibition of parental control AUXB1 cells by colchicine", "format": "cell-based, Chinese hamster", "conditions": "Cricetulus griseus, read-out: 50% growth inhibition (GI50)", "description": "(§1) CR1R12 cells were grown in the presence of increasing concentrations of colchicine for 3 d at given concentrations of test compounds. Cell densities were determined using the sulforhodamine B colorimetric assay (Vichai & Kirtikara, 2006[▶]). 100% is defined as the growth in the absence of colchicine. Parental AUXB1 cells were included as controls. […]\n(§2) Figure S4 Sensitization of CR1R12 cells to the anti-cancer drug colchicine by homotrimeric cyclopeptides. Relative to parental control AUXB1 cells, P-gp-overexpressing CR1R12 cells are ~200 times more resistant to the anticancer drug colchicine (gray lines in all panes). Their 50% growth […]\n(§3) Presence of (a) QZ-Ala, green, (b)\n(§4) QZ-Val, blue, and (d) QZ-Phe, red, in the growth media sensitized the CR1R12 cells to colchicine in a concentration-dependent manner with full reversal of P-gp mediated multidrug resistance seen at 2 […]\n(§5) increasing concentrations of (c) QZ-Leu, yellow, also sensitized CR1R12 cells to colchicine, where […]\n(§6) higher concentrations. Shown are representative data from three independent experiments. The concentrations are plotted in log scale."}, "CR1R12 cells": {"tested_on": "CR1R12 cells", "experiment": "Sensitization assay: growth of CR1R12 cells with colchicine (sulforhodamine B)", "format": "cell-based, Chinese hamster", "description": "as §1, §2, §3, §4, §5, §6"}, "[1]": {"experiment": "Solubility remark (Fig. S3 legend)", "format": "physicochemical", "conditions": "at high concentrations"}, "[2]": {"tested_on": "P-gp-over-expressing CR1R12, and parental control AuxB1, cells", "experiment": "Cytotoxicity of the cyclopeptides to CR1R12 and parental AuxB1 cells (Fig. S3)", "format": "cell-based, Chinese hamster", "description": "Figure S1 NMR spectra of QZ-Ala, QZ-Leu and QZ-Phe. 13C (top) and 1H (bottom) spectra are […]\nFigure S2 Structure based alignment. Two views of P-gp depicting Cα position shifts between the new (P-gp native at 3.4 Å, reported here) and previously published model (pdb code: 4KSB). Changes are depicted by color with red indicating the largest shift in Cα position (8.35 Å). Alignments and pairwise Cα RMSD calculations were calculated using the python module ‘ColorByRMSD’ within the PyMOL Molecular Graphics System (Schrödinger, LLC)\nFigure S3 Cytotoxicity of the homotrimeric cyclopeptide compounds to P -gp-over-expressing CR1R12, and parental control AuxB1, cells using Calcein-AM transport assay. P-gp mediates mild […]\nof this compound at high concentrations. The mean and SD of quadruplet experiments are shown; data were fit using the Hill equation. QZ-Ala, QZ-Val, QZ-Leu and QZ-Phe are drawn in green, blue, yellow and red curves, respectively. The concentrations are plotted in log scale.\nas §2\nPresence of (a) QZ-Ala, green, (b) […]"}, "P-gp [3]": {"target": "T1, P-gp (Cricetulus griseus, UniProt P21448)", "T1 construct": "endogenous in cells; host or cells: Chinese hamster ovary CR1R12 cells (colchicine-selected; parental AUXB1)", "T1 sequence (P21448 whole entry)": "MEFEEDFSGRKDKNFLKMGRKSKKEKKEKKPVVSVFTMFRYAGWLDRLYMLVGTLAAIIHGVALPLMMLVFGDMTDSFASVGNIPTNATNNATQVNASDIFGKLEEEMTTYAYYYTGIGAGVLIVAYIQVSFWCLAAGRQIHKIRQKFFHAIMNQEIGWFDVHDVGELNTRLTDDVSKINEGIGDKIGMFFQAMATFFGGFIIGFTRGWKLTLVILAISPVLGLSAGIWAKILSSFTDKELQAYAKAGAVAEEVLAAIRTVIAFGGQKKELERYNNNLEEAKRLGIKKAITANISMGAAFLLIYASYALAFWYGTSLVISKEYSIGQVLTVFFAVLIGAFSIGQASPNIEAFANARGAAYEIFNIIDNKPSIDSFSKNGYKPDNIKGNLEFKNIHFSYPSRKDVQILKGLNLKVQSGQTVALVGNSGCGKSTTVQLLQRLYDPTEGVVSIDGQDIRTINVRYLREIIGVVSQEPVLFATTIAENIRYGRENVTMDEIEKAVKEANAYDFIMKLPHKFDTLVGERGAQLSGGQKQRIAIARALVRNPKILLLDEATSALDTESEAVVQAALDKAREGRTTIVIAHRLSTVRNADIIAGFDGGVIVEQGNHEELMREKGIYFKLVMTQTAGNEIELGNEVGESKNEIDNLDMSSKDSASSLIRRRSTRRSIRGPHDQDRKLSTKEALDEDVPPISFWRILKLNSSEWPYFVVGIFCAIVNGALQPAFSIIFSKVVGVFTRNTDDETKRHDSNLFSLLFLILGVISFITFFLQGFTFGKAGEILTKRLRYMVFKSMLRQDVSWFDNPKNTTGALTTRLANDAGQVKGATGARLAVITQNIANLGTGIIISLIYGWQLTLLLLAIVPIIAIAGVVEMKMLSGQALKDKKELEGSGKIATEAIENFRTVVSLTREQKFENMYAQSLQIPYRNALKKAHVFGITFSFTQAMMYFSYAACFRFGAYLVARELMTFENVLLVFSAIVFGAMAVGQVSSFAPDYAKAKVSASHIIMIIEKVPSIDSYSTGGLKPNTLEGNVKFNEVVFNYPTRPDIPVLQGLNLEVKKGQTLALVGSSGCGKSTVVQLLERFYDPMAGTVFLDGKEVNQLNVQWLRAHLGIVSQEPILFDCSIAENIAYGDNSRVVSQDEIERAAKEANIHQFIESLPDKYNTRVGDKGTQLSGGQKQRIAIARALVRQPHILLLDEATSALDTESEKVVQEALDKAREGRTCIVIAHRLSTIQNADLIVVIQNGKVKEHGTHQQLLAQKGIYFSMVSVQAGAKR", "experiment": "Calcein-AM transport assay in P-gp-overexpressing CR1R12 cells", "format": "cell-based, Chinese hamster", "conditions": "calcein-AM 0.25 µM, room temperature, read-out: IC50 inhibition of calcein-AM export", "description": "It has commonly been used in fluorescence-based transport assays for P-gp in whole-cell systems (Al-Shawi & Senior, 1993[▶]). Chinese hamster ovary CR1R12 cells were cultured in the presence of 5 µg ml^−1 colchicine to maintain P-gp overexpression. In general, ∼5 × 10^5 CR1R12 cells per well were pretreated with test compounds in serially increasing concentrations at room temperature for 15 min; calcein-AM (0.25 µM) was then added and incubated for an additional 15 min at room temperature while monitoring the fluorescence intensity (excitation at 485 nm, emission at 535 nm). 100% was the maximum fluorescence achieved by full inhibition of P-gp in CR1R12 cells. The means and standard deviations were obtained from quadruplet experiments."}, "P-gp [4]": {"target": "T2, P-gp (Mus musculus, UniProt P21447)", "T2 construct": "inferred from the Ni-NTA purification; made in house; host or cells: Pichia pastoris", "T2 sequence (P21447 whole entry)": "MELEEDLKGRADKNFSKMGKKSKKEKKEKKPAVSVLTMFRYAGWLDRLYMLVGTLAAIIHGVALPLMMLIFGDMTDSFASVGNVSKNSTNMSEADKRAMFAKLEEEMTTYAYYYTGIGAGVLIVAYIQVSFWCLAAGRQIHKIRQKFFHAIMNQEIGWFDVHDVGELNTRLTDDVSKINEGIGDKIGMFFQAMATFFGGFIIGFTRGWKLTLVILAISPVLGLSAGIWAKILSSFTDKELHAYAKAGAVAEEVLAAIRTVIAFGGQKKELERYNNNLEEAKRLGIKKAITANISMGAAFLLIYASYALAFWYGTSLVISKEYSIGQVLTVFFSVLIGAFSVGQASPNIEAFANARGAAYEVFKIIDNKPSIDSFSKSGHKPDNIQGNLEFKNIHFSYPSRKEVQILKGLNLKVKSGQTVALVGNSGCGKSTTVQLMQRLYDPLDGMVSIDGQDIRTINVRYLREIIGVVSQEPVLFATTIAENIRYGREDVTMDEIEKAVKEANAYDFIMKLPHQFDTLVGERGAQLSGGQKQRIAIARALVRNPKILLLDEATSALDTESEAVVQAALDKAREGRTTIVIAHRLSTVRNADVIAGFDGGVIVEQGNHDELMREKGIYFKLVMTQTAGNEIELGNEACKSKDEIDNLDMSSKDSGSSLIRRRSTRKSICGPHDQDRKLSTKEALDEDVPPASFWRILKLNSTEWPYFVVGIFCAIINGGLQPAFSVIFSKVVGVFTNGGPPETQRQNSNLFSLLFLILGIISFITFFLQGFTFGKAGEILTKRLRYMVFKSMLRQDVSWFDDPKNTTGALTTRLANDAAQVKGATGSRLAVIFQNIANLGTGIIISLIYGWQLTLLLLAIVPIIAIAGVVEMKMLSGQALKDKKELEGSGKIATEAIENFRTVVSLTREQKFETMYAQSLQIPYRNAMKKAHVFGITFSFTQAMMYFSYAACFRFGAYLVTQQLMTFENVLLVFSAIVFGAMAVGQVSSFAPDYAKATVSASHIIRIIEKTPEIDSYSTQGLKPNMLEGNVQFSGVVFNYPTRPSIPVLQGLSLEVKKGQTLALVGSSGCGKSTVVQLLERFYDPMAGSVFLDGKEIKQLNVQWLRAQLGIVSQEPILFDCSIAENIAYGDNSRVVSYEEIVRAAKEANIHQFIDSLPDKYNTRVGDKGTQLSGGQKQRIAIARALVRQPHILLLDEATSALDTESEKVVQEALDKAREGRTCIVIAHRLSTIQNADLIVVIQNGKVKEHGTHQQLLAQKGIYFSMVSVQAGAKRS", "experiment": "Stimulation of basal ATPase activity of purified P-gp", "format": "biochemical", "conditions": "310 K", "description": "The ATPase activity of P-gp was measured at 310 K using the ATP-regenerating system described by Vogel & Steinhart (1976[▶]) as modified by Urbatsch et al. (1995[▶]). Briefly, 1 µg P-gp was added to 100 µl 50 mM Tris–HCl pH 7.5 buffer containing 10 mM ATP, 12 mM MgCl2, 6 mM phosphoenolpyruvate, 1 mM NADH, 10 units of lactate dehydrogenase, 10 units of pyruvate kinase and test compounds over a range of concentrations. ATP hydrolysis was determined by the decrease in NADH absorbance at OD340 using a Filtermax F5 Multiplate Spectrophotometer. The ATPase activity was calculated using the equation ΔOD/(∊ × [protein] × time), where ΔOD is the change in absorbance and ∊ is the extinction coefficient of NADH. The concentration of purified P-gp was estimated by comparing the SDS–PAGE intensity of Coomassie-stained protein bands with known amounts of BSA. EC50 values were calculated using GraphPad Prism (GraphPad Software, San Diego, California, USA) using nonlinear regression (curve fit) from the entire concentration range.\nGene-optimized mouse P-gp (ABCB1a; GenBank JF834158) was expressed in Pichia pastoris in 10 l cultures in a BioFlo 415 bioreactor (New Brunswick Scientific) and was induced by the slow addition of methanol (3.6 ml per hour per litre of culture volume) overnight as described previously (Aller et al., 2009[▶]; Bai et al., 2011[▶]). […]"}}}
{"smiles": "COc1cc2c(c(OC)c1OC)-c1ccc(OC)c(=O)cc1[C@@H](NC(C)=O)CC2", "note": "[colchicine]", "values": [{"measurement": "GI50", "setting": "AUXB1 cells", "value": 140, "unit": "nM"}, {"measurement": "Resistance of CR1R12 cells relative to AUXB1 cells", "setting": "CR1R12 cells; CR1R12 vs parental AUXB1", "value": "~ 200 times"}, {"measurement": "GI50", "setting": "CR1R12 cells; Cricetulus griseus, CR1R12 cells, no cyclopeptide, read-out: 50% growth inhibition (GI50)", "value": 27000, "unit": "nM"}]}
{"smiles": "O=C1N[C@@H](Cc2ccccc2)c2nc(c[se]2)C(=O)N[C@@H](Cc2ccccc2)c2nc(c[se]2)C(=O)N[C@@H](Cc2ccccc2)c2nc1c[se]2", "note": "[QZ-Phe]", "values": [{"measurement": "Solubility (in words)", "setting": "[1]", "value": "limited solubility"}, {"measurement": "Full growth inhibition (in words)", "setting": "[2]", "value": "not observed"}, {"measurement": "IC50", "setting": "P-gp [3]", "value": 24000, "unit": "nM"}]}
{"smiles": "C[C@@H]1NC(=O)c2c[se]c(n2)[C@H](C)NC(=O)c2c[se]c(n2)[C@H](C)NC(=O)c2c[se]c1n2", "note": "[QZ-Ala]", "values": [{"measurement": "EC50", "setting": "P-gp [4]", "value": 920, "unit": "nM"}, {"measurement": "IC50", "setting": "P-gp [3]", "value": 140, "unit": "nM"}]}
{"smiles": "CC(C)[C@@H]1NC(=O)c2c[se]c(n2)[C@H](C(C)C)NC(=O)c2c[se]c(n2)[C@H](C(C)C)NC(=O)c2c[se]c1n2", "note": "[QZ-Val]", "values": [{"measurement": "IC50", "setting": "P-gp [3]", "value": 1700, "unit": "nM"}]}
{"smiles": "CC(C)C[C@@H]1NC(=O)c2c[se]c(n2)[C@H](CC(C)C)NC(=O)c2c[se]c(n2)[C@H](CC(C)C)NC(=O)c2c[se]c1n2", "note": "[QZ-Leu]", "values": [{"measurement": "IC50", "setting": "P-gp [3]", "value": 5400, "unit": "nM"}, {"measurement": "Cytotoxicity (in words)", "setting": "CR1R12 cells; CR1R12 cells, higher concentrations", "value": "became cytotoxic"}]}
